Measurements as given in patent US20140357713A1, “ANTIMICROBIAL COMPOUNDS AND METHODS OF USE” (NexMed Holdings, Inc., priority 2012, published 2014).

Assays:
Experiment in all cases: Extended time kill study, Example 34 (0 to 24 h)
Assay type in all cases: cell-based
[1] = test system: Aspergillus niger
Summary of the method: (§1)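 Strain suspensions prepared as for MIC testing were mixed 1:1 with compound solution at higher multiples of MIC. Samples taken over 0 to 24 h were diluted in test medium and plated on agar, and colonies were counted after 24–48 h incubation.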

[2] = test system: Candida albicans
Summary of the method: as §1

[3] = test system: Escherichia coli
Summary of the method: as §1

[4] = test system: Pseudomonas aeruginosa
Summary of the method: as §1

**Q.** How did the “Viable counts in Log10 CFU/mL” value ([1]; 1 × MIC, 1 h) turn out when `CCCCCCCCCCCCOC(=O)C(C)NC.Cl` (centres unmarked) [Nex-59, Dodecyl 2-(methylamino)propanoate hydrochloride] was run?
**A.** The value was 5.34 Log10 CFU/mL.

**Q.** And the “Viable counts in Log10 CFU/mL” value ([1]; 1 × MIC, 2 h)?
**A.** The value was 5.48 Log10 CFU/mL.

**Q.** And the “Viable counts in Log10 CFU/mL” value ([1]; 1 × MIC, 4 h)?
**A.** Its value is 5.08 Log10 CFU/mL.

**Q.** And the “Viable counts in Log10 CFU/mL” value ([1]; 1 × MIC, 6 h)?
**A.** Its value is 5.30 Log10 CFU/mL.

**Q.** What about the “Viable counts in Log10 CFU/mL” value ([1]; 1 × MIC, 24 h) of the same compound?
**A.** The value was 3.78 Log10 CFU/mL.

**Q.** What about the “Viable counts in Log10 CFU/mL” value ([1]; 1 × MIC, 0 h) of the same compound?
**A.** Its value is 5.41 Log10 CFU/mL.

**Q.** And the “Viable counts in Log10 CFU/mL” value ([1]; 2 × MIC, 1 h)?
**A.** The value was 5.11 Log10 CFU/mL.

**Q.** And the “Viable counts in Log10 CFU/mL” value ([1]; 2 × MIC, 2 h)?
**A.** Its value is 4.70 Log10 CFU/mL.

**Q.** What about the “Viable counts in Log10 CFU/mL” value ([1]; 2 × MIC, 4 h) of the same compound?
**A.** Its value is 4.48 Log10 CFU/mL.

**Q.** And the “Viable counts in Log10 CFU/mL” value ([1]; 2 × MIC, 6 h)?
**A.** The value was 3.95 Log10 CFU/mL.

**Q.** And the “Viable counts in Log10 CFU/mL” value ([1]; 2 × MIC, 24 h)?
**A.** The value was less than 2 Log10 CFU/mL.

**Q.** And the “Viable counts in Log10 CFU/mL” value ([1]; 2 × MIC, 0 h)?
**A.** Its value is 5.36 Log10 CFU/mL.

**Q.** What about the “Viable counts in Log10 CFU/mL” value ([1]; 4 × MIC, 1 h) of the same compound?
**A.** The value was 5.08 Log10 CFU/mL.

**Q.** What about the “Viable counts in Log10 CFU/mL” value ([1]; 4 × MIC, 2 h) of the same compound?
**A.** Its value is 4.48 Log10 CFU/mL.

**Q.** What about the “Viable counts in Log10 CFU/mL” value ([1]; 4 × MIC, 4 h) of the same compound?
**A.** Its value is 3.85 Log10 CFU/mL.

**Q.** What about the “Viable counts in Log10 CFU/mL” value ([1]; 4 × MIC, 6 h) of the same compound?
**A.** The value was 4.04 Log10 CFU/mL.

**Q.** What about the “Viable counts in Log10 CFU/mL” value ([1]; 4 × MIC, 24 h) of the same compound?
**A.** The value was less than 2 Log10 CFU/mL.

**Q.** And the “Viable counts in Log10 CFU/mL” value ([1]; 4 × MIC, 0 h)?
**A.** The value was 5.29 Log10 CFU/mL.

**Q.** And the “Viable counts in Log10 CFU/mL” value ([2]; 1 × MIC, 1 h)?
**A.** The value was 5.41 Log10 CFU/mL.

**Q.** What about the “Viable counts in Log10 CFU/mL” value ([2]; 1 × MIC, 2 h) of the same compound?
**A.** The value was 5.24 Log10 CFU/mL.

**Q.** And the “Viable counts in Log10 CFU/mL” value ([2]; 1 × MIC, 4 h)?
**A.** Its value is 4.96 Log10 CFU/mL.

**Q.** What about the “Viable counts in Log10 CFU/mL” value ([2]; 1 × MIC, 6 h) of the same compound?
**A.** Its value is 4.40 Log10 CFU/mL.

**Q.** And the “Viable counts in Log10 CFU/mL” value ([2]; 1 × MIC, 24 h)?
**A.** The value was greater than 6 Log10 CFU/mL.

**Q.** What about the “Viable counts in Log10 CFU/mL” value ([2]; 1 × MIC, 0 h) of the same compound?
**A.** Its value is 5.68 Log10 CFU/mL.

**Q.** And the “Viable counts in Log10 CFU/mL” value ([2]; 2 × MIC, 1 h)?
**A.** The value was 3.48 Log10 CFU/mL.

**Q.** And the “Viable counts in Log10 CFU/mL” value ([2]; 2 × MIC, 2 h)?
**A.** The value was 3.00 Log10 CFU/mL.

**Q.** And the “Viable counts in Log10 CFU/mL” value ([2]; 2 × MIC, 4 h)?
**A.** Its value is 3.00 Log10 CFU/mL.

**Q.** What about the “Viable counts in Log10 CFU/mL” value ([2]; 2 × MIC, 6 h) of the same compound?
**A.** Its value is less than 2.70 Log10 CFU/mL.

**Q.** And the “Viable counts in Log10 CFU/mL” value ([2]; 2 × MIC, 24 h)?
**A.** Its value is less than 1 Log10 CFU/mL.

**Q.** And the “Viable counts in Log10 CFU/mL” value ([2]; 2 × MIC, 0 h)?
**A.** Its value is 5.75 Log10 CFU/mL.

**Q.** And the “Viable counts in Log10 CFU/mL” value ([2]; 4 × MIC, 1 h)?
**A.** The value was less than 3 Log10 CFU/mL.

**Q.** What about the “Viable counts in Log10 CFU/mL” value ([2]; 4 × MIC, 2 h) of the same compound?
**A.** The value was less than 3 Log10 CFU/mL.

**Q.** What about the “Viable counts in Log10 CFU/mL” value ([2]; 4 × MIC, 4 h) of the same compound?
**A.** Its value is less than 2.70 Log10 CFU/mL.

**Q.** What about the “Viable counts in Log10 CFU/mL” value ([2]; 4 × MIC, 6 h) of the same compound?
**A.** Its value is less than 2.70 Log10 CFU/mL.

**Q.** What about the “Viable counts in Log10 CFU/mL” value ([2]; 4 × MIC, 24 h) of the same compound?
**A.** The value was less than 1 Log10 CFU/mL.

**Q.** What about the “Viable counts in Log10 CFU/mL” value ([2]; 4 × MIC, 0 h) of the same compound?
**A.** The value was 5.63 Log10 CFU/mL.

**Q.** And the “Viable counts, Escherichia coli time kill study” value ([3]; 1 × MIC, 1 h)?
**A.** The value was 1 Log10 CFU/mL.

**Q.** What about the “Viable counts, Escherichia coli time kill study” value ([3]; 1 × MIC, 2 h) of the same compound?
**A.** Its value is less than 1 Log10 CFU/mL.

**Q.** What about the “Viable counts, Escherichia coli time kill study” value ([3]; 1 × MIC, 4 h) of the same compound?
**A.** Its value is 1.85 Log10 CFU/mL.

**Q.** What about the “Viable counts, Escherichia coli time kill study” value ([3]; 1 × MIC, 6 h) of the same compound?
**A.** Its value is 2.81 Log10 CFU/mL.

**Q.** What about the “Viable counts, Escherichia coli time kill study” value ([3]; 1 × MIC, 24 h) of the same compound?
**A.** Its value is 7.91 Log10 CFU/mL.

**Q.** And the “Viable counts, Escherichia coli time kill study” value ([3]; 1×MIC, time 0)?
**A.** Its value is 5 Log10 CFU/mL.

**Q.** What about the “Viable counts, Escherichia coli time kill study” value ([3]; 2 × MIC, 1 h) of the same compound?
**A.** Its value is less than 1 Log10 CFU/mL.

**Q.** What about the “Viable counts, Escherichia coli time kill study” value ([3]; 2 × MIC, 2 h) of the same compound?
**A.** The value was less than 1 Log10 CFU/mL.

**Q.** What about the “Viable counts, Escherichia coli time kill study” value ([3]; 2 × MIC, 4 h) of the same compound?
**A.** The value was less than 1 Log10 CFU/mL.

**Q.** And the “Viable counts, Escherichia coli time kill study” value ([3]; 2 × MIC, 6 h)?
**A.** Its value is less than 1 Log10 CFU/mL.

**Q.** What about the “Viable counts, Escherichia coli time kill study” value ([3]; 2 × MIC, 24 h) of the same compound?
**A.** The value was less than 1 Log10 CFU/mL.

**Q.** What about the “Viable counts, Escherichia coli time kill study” value ([3]; 2 × MIC, time 0) of the same compound?
**A.** The value was 5.12 Log10 CFU/mL.

**Q.** What about the “Viable counts, Escherichia coli time kill study” value ([3]; 4 × MIC, 1 h) of the same compound?
**A.** The value was less than 1 Log10 CFU/mL.

**Q.** And the “Viable counts, Escherichia coli time kill study” value ([3]; 4 × MIC, 2 h)?
**A.** The value was less than 1 Log10 CFU/mL.

**Q.** And the “Viable counts, Escherichia coli time kill study” value ([3]; 4 × MIC, 4 h)?
**A.** The value was less than 1 Log10 CFU/mL.

**Q.** What about the “Viable counts, Escherichia coli time kill study” value ([3]; 4 × MIC, 6 h) of the same compound?
**A.** The value was less than 1 Log10 CFU/mL.

**Q.** And the “Viable counts, Escherichia coli time kill study” value ([3]; 4 × MIC, 24 h)?
**A.** Its value is less than 1 Log10 CFU/mL.

**Q.** And the “Viable counts, Escherichia coli time kill study” value ([3]; 4 × MIC, time 0)?
**A.** The value was 5.04 Log10 CFU/mL.

**Q.** What about the “Viable counts, Pseudomonas aeruginosa time kill study” value ([4]; 1 × MIC, 1 h) of the same compound?
**A.** Its value is less than 1 Log10 CFU/mL.

**Q.** And the “Viable counts, Pseudomonas aeruginosa time kill study” value ([4]; 1 × MIC, 2 h)?
**A.** Its value is less than 1 Log10 CFU/mL.

**Q.** What about the “Viable counts, Pseudomonas aeruginosa time kill study” value ([4]; 1 × MIC, 4 h) of the same compound?
**A.** The value was less than 1 Log10 CFU/mL.

**Q.** What about the “Viable counts, Pseudomonas aeruginosa time kill study” value ([4]; 1 × MIC, 6 h) of the same compound?
**A.** The value was less than 1 Log10 CFU/mL.

**Q.** What about the “Viable counts, Pseudomonas aeruginosa time kill study” value ([4]; 1 × MIC, 24 h) of the same compound?
**A.** Its value is less than 1 Log10 CFU/mL.

**Q.** What about the “Viable counts, Pseudomonas aeruginosa time kill study” value ([4]; 1×MIC, time 0) of the same compound?
**A.** Its value is 5.18 Log10 CFU/mL.

**Q.** What about the “Viable counts, Pseudomonas aeruginosa time kill study” value ([4]; 2 × MIC, 1 h) of the same compound?
**A.** Its value is less than 1 Log10 CFU/mL.

**Q.** What about the “Viable counts, Pseudomonas aeruginosa time kill study” value ([4]; 2 × MIC, 2 h) of the same compound?
**A.** The value was less than 1 Log10 CFU/mL.

**Q.** And the “Viable counts, Pseudomonas aeruginosa time kill study” value ([4]; 2 × MIC, 4 h)?
**A.** Its value is less than 1 Log10 CFU/mL.

**Q.** What about the “Viable counts, Pseudomonas aeruginosa time kill study” value ([4]; 2 × MIC, 6 h) of the same compound?
**A.** Its value is less than 1 Log10 CFU/mL.

**Q.** And the “Viable counts, Pseudomonas aeruginosa time kill study” value ([4]; 2 × MIC, 24 h)?
**A.** The value was less than 1 Log10 CFU/mL.
